Consider three compounds from paper PMC3617406 (Molecular pharmaceutics, 2013).

The target in data set [1] is T1, human NTCP (Homo sapiens, UniProt Q14973).
T1 sequence (Q14973 1-349): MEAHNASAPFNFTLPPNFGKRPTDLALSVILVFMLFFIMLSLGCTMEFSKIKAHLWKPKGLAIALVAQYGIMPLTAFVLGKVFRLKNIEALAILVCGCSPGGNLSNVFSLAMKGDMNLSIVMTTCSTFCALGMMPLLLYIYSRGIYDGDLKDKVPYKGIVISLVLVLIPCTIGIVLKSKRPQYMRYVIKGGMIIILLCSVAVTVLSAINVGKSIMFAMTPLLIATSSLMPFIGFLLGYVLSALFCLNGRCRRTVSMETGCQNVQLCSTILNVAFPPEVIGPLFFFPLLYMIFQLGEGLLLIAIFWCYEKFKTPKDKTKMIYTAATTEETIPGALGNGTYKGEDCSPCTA
Format: cell-based. As to conditions: for NTCP inhibitor or non-inhibitor: inhibitor = Ki less than 300 μM; for potency estimated from few doses: read-out: Estimated Ki for NTCP.

Data set [2] addresses T1, human NTCP. In kind it is cell-based.
The target in a further data set is T2, human ASBT (Homo sapiens, UniProt Q12908).
T2 sequence (Q12908 1-348): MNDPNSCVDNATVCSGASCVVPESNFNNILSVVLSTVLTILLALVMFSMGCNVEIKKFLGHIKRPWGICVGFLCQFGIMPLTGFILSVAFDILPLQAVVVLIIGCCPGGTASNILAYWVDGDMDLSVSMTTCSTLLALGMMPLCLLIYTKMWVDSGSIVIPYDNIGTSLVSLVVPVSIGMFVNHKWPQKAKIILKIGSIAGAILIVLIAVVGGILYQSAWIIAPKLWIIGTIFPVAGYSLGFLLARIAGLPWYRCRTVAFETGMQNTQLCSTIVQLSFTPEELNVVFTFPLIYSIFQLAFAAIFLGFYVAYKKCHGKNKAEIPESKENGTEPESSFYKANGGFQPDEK
In kind it is cell-based. The settings on record: for potency estimated from few doses: read-out: Estimated Ki for ASBT.

A short description of the next data set: Cytotoxicity study. As to conditions: dog, ASBT-MDCK cells.
For data set [3], the target named is T1, human NTCP. The data set can be described thus: Taurocholate uptake kinetics into NTCP-HEK293 cells. As to conditions: Figure S1.

What is called Ki is a measure of affinity in units of concentration, obtained from inhibition or displacement. Broadly, the viability is a read-out of living cells in per cent, often relative to untreated cells. High values mean better survival, low ones a greater loss of cells. `CC(C)OC(=O)C(C)(C)Oc1ccc(C(=O)c2ccc(Cl)cc2)cc1` [Fenofibrate]: the “NTCP inhibitor or non-inhibitor” value at human NTCP [1] is listed as “inhibited NTCP”. The potency estimated from few doses was 211 ± 60 µM at human NTCP [1] and 121 ± 33 µM on human ASBT. In addition, the inhibition constant (Ki) at human NTCP [2] is 129 ± 20 µM. In addition, at human ASBT (single drug concentration, same as in NTCP screening (typically 100 μM)), the “taurocholate uptake into ASBT-MDCK cells, percent of control” value is reported as 64.7%. The same compound gave a viability at 10 min, 100 μM in “Cytotoxicity study” of 79.2%.
For `CCCCC(=O)N(Cc1ccc(-c2ccccc2-c2nnn[nH]2)cc1)[C@H](C(=O)O)C(C)C` [Valsartan], on human NTCP [1], the “NTCP inhibitor or non-inhibitor” value is reported as “did not inhibit NTCP” and the potency estimated from few doses was above 100 µM. Also, the potency estimated from few doses at human ASBT was 1260 µM. Besides, the viability at 10 min, 100 μM in “Cytotoxicity study” came out at 77.9%.
As for `C[C@H](CCC(=O)NCCS(=O)(=O)O)[C@H]1CC[C@H]2[C@@H]3[C@H](O)C[C@@H]4C[C@H](O)CC[C@]4(C)[C@H]3C[C@H](O)[C@]12C` [taurocholate, Taurocholate], on human NTCP [3], the “Kt (taurocholate Michaelis-Menten constant)” value was 22.7(±3.4) μM, the Vmax is reported as 1.80(±0.03) pmol/sec/cm^2 and the “passive permeability Pp” value is 1.27(±0.03)x10^−6 cm/sec.
